Data from patent US20160067241A1, “COMPOSITIONS AND METHODS TO IMPROVE THE THERAPEUTIC BENEFIT OF SUBOPTIMALLY ADMINISTERED CHEMICAL COMPOUNDS INCLUDING SUBSTITUTED NAPHTHALIMIDES SUCH AS AMONAFIDE FOR THE TREATMENT OF IMMUNOLOGICAL, METABOLIC, INFECTIOUS, AND BENIGN OR NEOPLASTIC HYPERPROLIFERATIVE DISEASE CONDITIONS” (priority 2013, published 2016).

How the values were obtained:
[1] = tested on: RIF-1 murine fibrosarcoma; assay: RIF-1 fibrosarcoma tumor growth delay (tumor volume quadrupling time) in mice; assay type: in vivo, Female C3H mice; conditions: for enhancement of amonafide activity by sensitizing or potentiating agent: agent given with amonafide
Source text: Tables 1 and 2, shown in FIGS. 1 and 2, respectively, show the use of amonafide, alone or in combination with another anti-neoplastic drug, in a tumor model in mice as described below Female C3H mice (Charles River Laboratories, Hollister, Calif.), approximately 3 months old, were used for the study. The average body weight was approximately 25 g. Animals were maintained in isolator cages on a 12-hour light-and-dark cycle. Food and water were available ad libitum. The RIF-1 murine fibrosarcoma cell line was maintained in in vitro culture (Waymouth medium supplemented with 20% fetal bovine serum) at 37° C. in a humidified 5% CO2 incubator. Log-phase RIF-1 cells were trypsinized and harvested from cell culture flasks to yield a concentration of 4×10^6 cells/mL, then injected intradermally in a volume of 50 μL (equivalent to 2×10^5 cells per injection) into both flanks of each mouse. Nine days later, when tumors reached approximately 100 mm^3 in size, the animals were randomized to different treatment groups. The intraperitoneal injection volume was 100 μL. The oral administration volume was 100 μL. For evaluation of tumor growth delay, tumors were measured three times weekly for up to 22 days with Vernier calipers. Tumor volume (cubic millimeters, mm^3) was calculated according to the following formula: V=π/6×D1×D2×D3, where D1, D2, and D3 are perpendicular diameters measured in […]. Tumor volume quadrupling time (TVQT), defined as the time required for a tumor to grow to four times (4×) its initial volume (at the time of treatment), was used as a study endpoint. The TVQT was determined for each treatment group and expressed in days as the mean±standard error (SE). In these tables, “CDDP” is cisplatin, “VBL” is vinblastine, “HHT” is homoharringtonine, “5FU” is 5-fluorouracil, “CPT” is camptothecin, “RA” is rosmarinic acid, and “MGBG” is methylglyoxalbisguanylhydrazone. For solvents and excipients, “Sal” is saline, “NMF” is N-methylformamide, and “PEG400” is polyethylene glycol 400. For routes of administration, “IP” is intraperitoneal, “PO” is oral, “IM” is intramuscular, and “SC” is subcutaneous. In these tables, the use of the “+” symbol means that both drugs were administered at the same time, while the use of the “ ? ” symbol means that the drug to the left of the symbol was administered first, followed by the drug to the right of the symbol; the second drug was administered 30 minutes after the first drug. In the headings for these tables, “Days to 4×” is the number of days it takes the tumors to grow to four times their original size. “T/C” represents the average number of days that it takes the tumors to grow to four times their original size for the specified treatment divided by the number of days that it takes the tumors to grow to four times their original size for the control.

[2] = tested on: white blood cell count (WBC); conditions: patients; cited from earlier work
[3] = target: T1, N-acetyltransferase NAT2 (Homo sapiens, UniProt P11245); conditions: cited from earlier work
T1 sequence (P11245 1-290): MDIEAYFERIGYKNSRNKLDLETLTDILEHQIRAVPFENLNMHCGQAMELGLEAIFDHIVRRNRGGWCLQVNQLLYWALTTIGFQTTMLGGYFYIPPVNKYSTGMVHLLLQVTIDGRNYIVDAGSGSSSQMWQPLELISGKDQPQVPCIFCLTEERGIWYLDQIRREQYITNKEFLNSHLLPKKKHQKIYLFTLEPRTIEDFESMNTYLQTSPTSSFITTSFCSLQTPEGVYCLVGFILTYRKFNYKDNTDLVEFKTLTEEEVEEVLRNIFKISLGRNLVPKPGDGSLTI

[4] = tested on: topoisomerase II; conditions: Hsiang et al. 1989; cited from earlier work
[5] = target: glycogen synthase kinase-3β (GSK-3β) (Homo sapiens, UniProt P49841); conditions: cited from earlier work
glycogen synthase kinase-3β (GSK-3β), sequence (P49841 whole entry, species assumed): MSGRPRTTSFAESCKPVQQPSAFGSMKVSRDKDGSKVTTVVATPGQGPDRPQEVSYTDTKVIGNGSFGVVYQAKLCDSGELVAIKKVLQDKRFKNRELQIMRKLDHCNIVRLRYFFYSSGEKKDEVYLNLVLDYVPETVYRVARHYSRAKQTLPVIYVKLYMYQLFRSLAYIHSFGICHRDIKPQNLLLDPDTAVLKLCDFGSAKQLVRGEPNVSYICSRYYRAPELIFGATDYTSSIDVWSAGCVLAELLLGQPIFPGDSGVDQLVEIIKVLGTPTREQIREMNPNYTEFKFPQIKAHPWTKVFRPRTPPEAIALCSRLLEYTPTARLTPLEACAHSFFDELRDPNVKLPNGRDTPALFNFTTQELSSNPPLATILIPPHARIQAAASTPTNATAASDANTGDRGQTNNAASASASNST

COc1ccc2cc3[n+](cc2c1OC)CCc1cc2c(cc1-3)OCO2 [berberine]
enhancement of amonafide activity by sensitizing or potentiating agent [1]: enhances amonafide activity

CC(=O)Nc1cc2c3c(cccc3c1)C(=O)N(CCN(C)C)C2=O [acetyl amonafide]
impact on white blood cell count [2]: induce leukocytopenia and, in particular, granulocytopenia

NC(=O)c1cccnc1 [nicotinamide]
enhancement of amonafide activity by sensitizing or potentiating agent [1]: enhances amonafide activity

CN(C)CCN1C(=O)c2cccc3cc(N)cc(c23)C1=O [amonafide, 5-amino-2-[2-(dimethylamino)ethyl]-1H-benzo[de]isoquinoline-1,3(2H)-dione]
effect on tumor growth ([1]; RIF-1 tumors in C3H mice, alone or in combination with another anti-neoplastic drug): significant effect on tumor growth
combination effect with another anti-neoplastic drug ([1]; amonafide administered together with another anti-neoplastic drug): evidence of synergism
enhancement of antitumor effects of other drugs (chemosensitizer or chemopotentiator) ([1]; amonafide combined with a second drug): enhanced the antitumor effects of cisplatin, 5-fluorouracil, homoharringtonine, vinblastine, camptothecin, methylglyoxalbisguanylhydrazone, and cytarabine
antiproliferative activity by route ([1]; direct systemic (intraperitoneal) administration or oral route): active antiproliferative agent
activity by schedule ([1]; single administration or multiple oral doses): active after a single administration or given as multiple doses orally
metabolism by NAT2 [3]: converted to an active metabolite by way of the N-acetyltransferase NAT2
promotion of topoisomerase II-mediated DNA cleavage [4]: promote topoisomerase II-mediated DNA cleavage

CN1C(=O)/C(=C2/C(=O)Nc3ccccc32)c2ccccc21 [Meisoindigo]
concentration for inhibition of GSK-3β [5]: 5 to 50 nM
